Structure (SMILES)	melting point [°C]
COc1ccc(-n2nccn2)c(C(=O)N2CCC[C@@]2(C)C(=O)O)c1 [Reference Example 4.2, (S)-1-(5-methoxy-2-(2H-1,2,3-triazol-2-yl)benzoyl)-2-methylpyrrolidine-2-carboxylic acid]	178
COc1ccc(-n2nccn2)c(C(=O)N2CCC[C@@]2(C)C(=O)Nc2ccc(Cl)c(C)c2N)c1 [Reference Example 4.3, (S)—N-(2-amino-4-chloro-3-methylphenyl)-1-(5-methoxy-2-(2H-1,2,3-triazol-2-yl)benzoyl)-2 methylpyrrolidine-2-carboxamide]	185
